Read-outs that look alike come from different tables or passages of the source. Numbered stars: 1 amine (or outer) side, 2 acyl side, 3 side chain; on linkers, the order of the positions; unused ones are H or OH. Bridge positions count the residues as written; N and C are the ends. Side chains are listed from the residue outwards. Peptide text beside a SMILES is read from it. * marks the point of attachment. C20 diacid = O=C(O)CCCCCCCCCCCCCCCCCCC(=O)*; γGlu = O=C(O)[C@H](CCC(=O)[*:2])N[*:1]

For one assay, the target named is T1, rat calcitonin receptor (Rattus norvegicus, UniProt P32214).
T1 construct: expressed in transfected cells; host or cells: BHK tk'ts 13 (transient, FuGENE 6), membranes
T1 sequence (P32214 25-479 isoform P32214-2 limits assumed): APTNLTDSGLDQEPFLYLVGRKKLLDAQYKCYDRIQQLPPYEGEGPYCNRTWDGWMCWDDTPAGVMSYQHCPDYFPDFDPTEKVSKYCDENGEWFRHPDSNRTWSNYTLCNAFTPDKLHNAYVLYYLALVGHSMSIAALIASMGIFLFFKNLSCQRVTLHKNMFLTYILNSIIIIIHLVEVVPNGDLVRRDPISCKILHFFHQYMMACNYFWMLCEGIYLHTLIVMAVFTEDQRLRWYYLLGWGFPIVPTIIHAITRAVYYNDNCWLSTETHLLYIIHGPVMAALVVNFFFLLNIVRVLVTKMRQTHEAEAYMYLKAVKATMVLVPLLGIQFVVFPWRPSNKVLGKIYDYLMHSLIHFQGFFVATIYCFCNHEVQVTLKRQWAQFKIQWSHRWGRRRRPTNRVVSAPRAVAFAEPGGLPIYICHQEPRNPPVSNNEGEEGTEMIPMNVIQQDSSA
The assay can be described thus: ASSAY (VIII) binding to the rat calcitonin receptor. The conditions noted are these: Table 7, read-out: rCTR bind IC50. In short, it runs like this: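 BHK tk′ts 13 cells, transient rat calcitonin receptor transfection; DMEM + 10% FBS; harvest ~48 h post-transfection; membrane prep.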

Assay [1] addresses T2, human amylin receptor (membranes from Amylin 3(a)/CRE-luc cells) (Homo sapiens, UniProt O60896+P30988).
T2 construct: expressed in transfected cells
T2 sequence (P30988 25-474): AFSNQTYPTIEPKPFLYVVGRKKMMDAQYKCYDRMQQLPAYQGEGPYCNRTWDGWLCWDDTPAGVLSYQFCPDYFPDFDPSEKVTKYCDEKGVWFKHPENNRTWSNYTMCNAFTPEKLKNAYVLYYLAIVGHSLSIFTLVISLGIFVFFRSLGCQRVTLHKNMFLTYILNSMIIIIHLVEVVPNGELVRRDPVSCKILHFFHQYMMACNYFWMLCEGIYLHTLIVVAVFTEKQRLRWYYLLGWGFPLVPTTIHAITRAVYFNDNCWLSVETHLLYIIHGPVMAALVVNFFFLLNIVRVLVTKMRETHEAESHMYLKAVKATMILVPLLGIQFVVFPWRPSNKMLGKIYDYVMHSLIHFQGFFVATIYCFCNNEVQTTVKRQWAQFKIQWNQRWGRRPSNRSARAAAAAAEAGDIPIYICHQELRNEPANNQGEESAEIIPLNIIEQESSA
T2 sequence (O60896 24-148 partner): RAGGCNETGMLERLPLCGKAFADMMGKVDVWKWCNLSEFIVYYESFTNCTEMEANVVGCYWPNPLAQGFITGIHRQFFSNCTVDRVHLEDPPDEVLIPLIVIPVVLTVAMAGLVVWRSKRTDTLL
The assay can be described thus: ASSAY (V) binding to the human amylin receptor (SPA, 125I-rat amylin).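 Note: competition binding of cell membranes (35 ng/µL) mixed with SPA beads in 384-well plates at 40 µL total volume, read by scintillation counting.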

The target in assay [2] is T3, human calcitonin (a) receptor in BHK570 cells (Homo sapiens, UniProt P30988).
T3 construct: expressed in transfected cells
T3 sequence (P30988 25-474): T2 sequence (P30988 25-474)
The assay is described as follows: ASSAY (II)a functional assay, human calcitonin receptor (CRE luciferase). The class given is cell-based. In short, it runs like this: (§1)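 Functional agonism was measured by CRE-luciferase reporter luminescence in BHK cells bearing calcitonin receptor, or calcitonin receptor plus RAMP-3 as the amylin 3(a) receptor. Stimulation lasted 3 hours at 37° C.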

The target in assay [3] is T4, human amylin 3(a) receptor (human calcitonin receptor + RAMP-3) in BHK570 cells (Homo sapiens, UniProt O60896+P30988).
T4 construct: expressed in transfected cells
The assay can be described thus: ASSAY (II)a functional assay, human amylin receptor (CRE luciferase). The assay is classed as cell-based. In short, it runs like this: as §1

[4] abbreviates: Table 5, selectivity, hCTR bind IC50 / hAmylin-R bind IC50.
Setting [5] is: Table 5a, selectivity, hCTR bind IC50 / hAmylin-R bind IC50.
[6] abbreviates: Table 7, human binding selectivity, included for comparison.
[7] abbreviates: Table 7a (preferred compounds), human binding selectivity, included for comparison.
Where [8] appears, read: ratio of human calcitonin receptor binding IC50 to human amylin receptor binding IC50.
[9] abbreviates: hCTR funct. EC50 divided by hAmylin-R funct. EC50.
[10] abbreviates: hCTR funct. EC50 over hAmylin-R funct. EC50.
Setting [11] is: human functional selectivity: hCTR funct. EC50 / hAmylin-R funct. EC50.
Where [12] appears, read: Table 4, read-out: hAmylin-R bind IC50.
Where [13] appears, read: human amylin receptor functional potency, assay (II), read-out: hAmylin-R funct. EC50.

Consider `CC[C@H](C)[C@H](NC(=O)[C@H](C)NC(=O)CNC(=O)[C@H](Cc1ccccc1)NC(=O)[C@H](CC(N)=O)NC(=O)[C@@H]1CCCN1C(=O)[C@H](CO)NC(=O)[C@H](CO)NC(=O)[C@H](Cc1c[nH]cn1)NC(=O)[C@H](CCCNC(=N)N)NC(=O)[C@H](CC(C)C)NC(=O)[C@H](Cc1ccccc1)NC(=O)[C@H](C)NC(=O)[C@H](C)NC(=O)[C@H](CC(C)C)NC(=O)[C@H](CCCNC(=N)N)NC(=O)[C@H](CCC(N)=O)NC(=O)[C@@H](NC(=O)[C@H](C)NC(=O)[C@@H]1CSSC[C@H](NC(=O)[C@H](CCCNC(=N)N)NC(=O)CNC(=O)CC[C@H](NC(=O)CCCCCCCCCCCCCCCCCCC(=O)O)C(=O)O)C(=O)N[C@@H](CC(N)=O)C(=O)N[C@@H]([C@@H](C)O)C(=O)N[C@@H](C)C(=O)N[C@@H]([C@@H](C)O)C(=O)N1)[C@@H](C)O)C(=O)N1CCC[C@H]1C(=O)N[C@@H](CO)C(=O)N[C@@H](CO)C(=O)N[C@H](C(=O)N[C@@H](CC(N)=O)C(=O)N[C@H](C(=O)NCC(=O)N1CCC[C@H]1C(=O)N[C@@H](CC(N)=O)C(=O)N[C@H](C(=O)N[C@@H](Cc1ccc(O)cc1)C(N)=O)[C@@H](C)O)C(C)C)[C@@H](C)O` [Example 103] ({C20 diacid-γGlu}-GRCNTATCATQRLAAFLRHSSPNFGAIPSSTNVGPNTY-NH2; disulfide 3-8), for which the concentration for half-maximal inhibition (IC50) at rat calcitonin receptor stood at 56.3 nM; in assay [1] it was 0.114 nM. Further, the “Ratio hCT/hAmylin binding” value in assay [1] (setting [4]) is on record as 26.5; in assay [1] (setting [5]), 26.5; in assay [1] (Table 5b, selectivity, hCTR bind IC50 / hAmylin-R bind IC50) it was 26.5; in assay [1] (Table 5c, selectivity, hCTR bind IC50 / hAmylin-R bind IC50) it was 26.5; in assay [1] (setting [6]) it was 26.5; in assay [1] (setting [7]) it was 26.5. Moreover, in assay [1] (setting [8]), the “Ratio hCT/hAmylin binding” value turned out to be 26.5. Further, the figures for the EC50 in assay [2] and in assay [3] were 0.148 nM and 0.07 nM, respectively. For the same compound, the “Ratio hCT/hAmylin funct.” value in assay [3] (hCTR funct. EC50 / hAmylin-R funct. EC50), in assay [3] (setting [9]), in assay [3] (setting [10]) and in assay [3] (setting [11]) was 2.1 throughout.

`CC[C@H](C)[C@H](NC(=O)[C@H](C)NC(=O)CNC(=O)[C@H](Cc1ccccc1)NC(=O)[C@H](CC(N)=O)NC(=O)[C@@H]1CCCN1C(=O)[C@H](CO)NC(=O)[C@H](CO)NC(=O)[C@H](Cc1c[nH]cn1)NC(=O)[C@H](CCCNC(=N)N)NC(=O)[C@H](CC(C)C)NC(=O)[C@H](Cc1ccccc1)NC(=O)[C@H](CCC(=O)O)NC(=O)[C@H](C)NC(=O)[C@H](CC(C)C)NC(=O)[C@H](CCCNC(=N)N)NC(=O)[C@H](CCC(N)=O)NC(=O)[C@@H](NC(=O)[C@H](C)NC(=O)[C@@H]1CSSC[C@H](NC(=O)[C@@H](N)CCCCNC(=O)CC[C@H](NC(=O)CC[C@H](NC(=O)CCCCCCCCCCCCCCCCCCC(=O)O)C(=O)O)C(=O)O)C(=O)N[C@@H](CC(N)=O)C(=O)N[C@@H]([C@@H](C)O)C(=O)N[C@@H](C)C(=O)N[C@@H]([C@@H](C)O)C(=O)N1)[C@@H](C)O)C(=O)N1CCC[C@H]1C(=O)N[C@@H](CO)C(=O)N[C@@H](CO)C(=O)N[C@H](C(=O)N[C@@H](CC(N)=O)C(=O)N[C@H](C(=O)NCC(=O)N[C@@H](CCCNC(=N)N)C(=O)N[C@@H](CCC(=O)O)C(=O)N[C@H](C(=O)N[C@@H](Cc1ccc(O)cc1)C(N)=O)[C@@H](C)O)C(C)C)[C@@H](C)O` [Example 105] (H-K([γGlu-γGlu-C20 diacid])CNTATCATQRLAEFLRHSSPNFGAIPSSTNVGRETY-NH2; disulfide 2-7; N-terminus assumed): the results for the IC50 (at rat calcitonin receptor; in assay [1] (setting [12])) were 452 nM and 0.957 nM, respectively. For the same compound, the “Ratio hCT/hAmylin binding” value in assay [1] (setting [4]), in assay [1] (setting [5]), in assay [1] (setting [6]), in assay [1] (setting [7]) and in assay [1] (setting [8]) was 14.7 each time. Also, the EC50 was 7.43 nM in assay [2] (read-out: hCTR funct. EC50) and 0.703 nM in assay [3] (setting [13]). Further, the “Ratio hCT/hAmylin funct.” value in assay [3] (setting [9]), in assay [3] (setting [10]) and in assay [3] (setting [11]) was 10.6 in each case.

Regarding `CC[C@H](C)[C@H](NC(=O)[C@H](C)NC(=O)CNC(=O)[C@H](Cc1ccccc1)NC(=O)[C@H](CC(N)=O)NC(=O)[C@@H]1CCCN1C(=O)[C@H](CO)NC(=O)[C@H](CO)NC(=O)[C@H](Cc1c[nH]cn1)NC(=O)[C@H](CCCNC(=N)N)NC(=O)[C@H](CC(C)C)NC(=O)[C@H](Cc1ccccc1)NC(=O)[C@H](CCC(=O)O)NC(=O)[C@H](C)NC(=O)[C@H](CC(C)C)NC(=O)[C@H](CCCNC(=N)N)NC(=O)[C@H](CCC(N)=O)NC(=O)[C@@H](NC(=O)[C@H](C)NC(=O)[C@@H]1CSSC[C@H](NC(=O)[C@@H](N)CCCCNC(=O)CC[C@H](NC(=O)CCCCCCCCCCCCCCCCCCC(=O)O)C(=O)O)C(=O)N[C@@H](CC(N)=O)C(=O)N[C@@H]([C@@H](C)O)C(=O)N[C@@H](C)C(=O)N[C@@H]([C@@H](C)O)C(=O)N1)[C@@H](C)O)C(=O)N1CCC[C@H]1C(=O)N[C@@H](CO)C(=O)N[C@@H](CO)C(=O)N[C@H](C(=O)N[C@@H](CC(N)=O)C(=O)N[C@H](C(=O)NCC(=O)N[C@@H](Cc1c[nH]cn1)C(=O)N[C@@H](CCC(=O)O)C(=O)N[C@H](C(=O)N[C@@H](Cc1ccc(O)cc1)C(N)=O)[C@@H](C)O)C(C)C)[C@@H](C)O` [Example 107] (H-K([γGlu-C20 diacid])CNTATCATQRLAEFLRHSSPNFGAIPSSTNVGHETY-NH2; disulfide 2-7 (inferred)), the concentration for half-maximal inhibition (IC50) on rat calcitonin receptor was 33.1 nM; in assay [1] (setting [12]), 0.387 nM. Besides, the “Ratio hCT/hAmylin binding” value in assay [1] (setting [4]), in assay [1] (setting [5]), in assay [1] (setting [6]), in assay [1] (setting [7]) and in assay [1] (setting [8]) was 11.1 in each case. In addition, the concentration for a half-maximal effect (EC50) came to 2.54 nM in assay [2] (read-out: hCTR funct. EC50) and 0.405 nM in assay [3] (setting [13]). Also, the “Ratio hCT/hAmylin funct.” value in assay [3] (setting [9]), in assay [3] (setting [10]) and in assay [3] (setting [11]) was 6.3 each time.

The values are drawn from US9023789B2, “Amylin analogs and pharmaceutical compositions thereof” (Novo Nordisk A/S, priority 2012, dated 2015).
